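Method: 48-hour compound exposure of cells in 96-well plates, five concentrations, linear interpolation of endpoints. Abbreviation: GI50, concentration required for 50% inhibition of growth.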 The source made the active and inactive calls. No stated cut-off is given here; in the data, active = GI50 up to about 1.1 µM and inactive = higher. Starred links: 1 amine or outer side, 2 acyl side, 3 side chain; linkers in the order of their positions; H or OH if unused. Non-standard residues stand in square brackets, D forms with d. Residues, ends and D or L forms follow the SMILES beside them. X41 = CSCCCC(N[*:1])C(=O)[*:2]
Tests used:
Experiment in all cases: NCI-60 cell line screen, 48 h
IGROV-1 = tested on: IGROV-1
KM12 = tested on: KM12
MOLT-4 = tested on: MOLT-4
SK-MEL-5 = tested on: SK-MEL-5
HCT-15 = tested on: HCT-15
Malme-3M = tested on: Malme-3M
SR = tested on: SR
SF-295 = tested on: SF-295
NCI/ADR-RES = tested on: NCI/ADR-RES
786-0 = tested on: 786-0
MDA-MB-435 = tested on: MDA-MB-435
NCI-H522 = tested on: NCI-H522
NCI-H226 = tested on: NCI-H226
A498 = tested on: A498
ACHN = tested on: ACHN
M14 = tested on: M14
HT-29 = tested on: HT-29
HCT-116 = tested on: HCT-116
OVCAR-5 = tested on: OVCAR-5
NCI-H23 = tested on: NCI-H23
SF-268 = tested on: SF-268
UACC-257 = tested on: UACC-257
A549 = tested on: A549
HOP-92 = tested on: HOP-92
OVCAR-8 = tested on: OVCAR-8
UACC-62 = tested on: UACC-62
SK-OV-3 = tested on: SK-OV-3
COLO 205 = tested on: COLO 205
T47D = tested on: T47D
SF-539 = tested on: SF-539
MCF7 = tested on: MCF7
BT-549 = tested on: BT-549
OVCAR-3 = tested on: OVCAR-3
TK-10 = tested on: TK-10
SNB-19 = tested on: SNB-19
Hs-578T = tested on: Hs-578T
UO-31 = tested on: UO-31
RPMI-8226 = tested on: RPMI-8226
OVCAR-4 = tested on: OVCAR-4
CCRF-CEM = tested on: CCRF-CEM
SK-MEL-2 = tested on: SK-MEL-2
SW-620 = tested on: SW-620
K562 = tested on: K562
PC-3 = tested on: PC-3
SNB-75 = tested on: SNB-75
CAKI-1 = tested on: CAKI-1
LOX IMVI = tested on: LOX IMVI
MDA-N = tested on: MDA-N
U-251 = tested on: U-251
HOP-62 = tested on: HOP-62
NCI-H460 = tested on: NCI-H460
EKVX = tested on: EKVX
MDA-MB-231 = tested on: MDA-MB-231
RXF 393 = tested on: RXF 393
HL-60 = tested on: HL-60
SN12C = tested on: SN12C
SK-MEL-28 = tested on: SK-MEL-28

## CC1Cn2c(nc3ccccc32)NC1=O (centres undefined)
IGROV-1
  GI50: > 100 µM (inactive)
KM12
  GI50: > 100 µM (inactive)
MOLT-4
  GI50: > 100 µM (inactive)
SK-MEL-5
  GI50: > 100 µM (inactive)
HCT-15
  GI50: > 100 µM
Malme-3M
  GI50: 58.2 µM (inactive)
SR
  GI50: > 100 µM (inactive)
SF-295
  GI50: > 100 µM (inactive)
NCI/ADR-RES
  GI50: > 100 µM (inactive)
786-0
  GI50: > 100 µM (inactive)
MDA-MB-435
  GI50: > 100 µM (inactive)
NCI-H522
  GI50: > 100 µM (inactive)
NCI-H226
  GI50: > 100 µM (inactive)
A498
  GI50: > 100 µM (inactive)
ACHN
  GI50: > 100 µM (inactive)
M14
  GI50: > 100 µM (inactive)
HT-29
  GI50: > 100 µM (inactive)
HCT-116
  GI50: > 100 µM (inactive)
OVCAR-5
  GI50: > 100 µM (inactive)
NCI-H23
  GI50: > 100 µM (inactive)
SF-268
  GI50: > 100 µM (inactive)
UACC-257
  GI50: > 100 µM (inactive)
A549
  GI50: > 100 µM (inactive)
HOP-92
  GI50: > 100 µM (inactive)
OVCAR-8
  GI50: > 100 µM (inactive)
UACC-62
  GI50: > 100 µM (inactive)
SK-OV-3
  GI50: > 100 µM (inactive)
COLO 205
  GI50: > 100 µM (inactive)
T47D
  GI50: > 100 µM (inactive)
SF-539
  GI50: > 100 µM (inactive)
MCF7
  GI50: > 100 µM (inactive)
BT-549
  GI50: > 100 µM (inactive)
OVCAR-3
  GI50: > 100 µM (inactive)
TK-10
  GI50: > 100 µM (inactive)
SNB-19
  GI50: > 100 µM (inactive)
Hs-578T
  GI50: > 100 µM (inactive)
UO-31
  GI50: > 100 µM (inactive)
RPMI-8226
  GI50: > 100 µM (inactive)
OVCAR-4
  GI50: > 100 µM (inactive)
CCRF-CEM
  GI50: > 100 µM (inactive)
SK-MEL-2
  GI50: > 100 µM (inactive)
SW-620
  GI50: > 100 µM (inactive)
K562
  GI50: > 100 µM (inactive)
PC-3
  GI50: > 100 µM (inactive)
SNB-75
  GI50: > 100 µM (inactive)
CAKI-1
  GI50: > 100 µM (inactive)
LOX IMVI
  GI50: > 100 µM (inactive)
MDA-N
  GI50: > 100 µM (inactive)
U-251
  GI50: > 100 µM (inactive)
HOP-62
  GI50: > 100 µM (inactive)
NCI-H460
  GI50: > 100 µM (inactive)
EKVX
  GI50: > 100 µM (inactive)
MDA-MB-231
  GI50: > 100 µM (inactive)
RXF 393
  GI50: > 100 µM (inactive)
HL-60
  GI50: > 100 µM (inactive)

## CSCCCC(NC(=O)CNC(=O)C1CCCN1C(=O)C(Cc1ccc(O)cc1)NC(=O)C(Cc1ccccc1)NC(=O)C(CCCNC(=N)N)NC(=O)C(CC(=O)O)NC(=O)C1CCCN1C(=O)C(CC(=O)O)NC(=O)C1CCCN1C(=O)C1CCCN1C(=O)CN)C(N)=O (centres undefined) (H-GPPDPDRFYPG[X41]-NH2; configuration not given here)
IGROV-1
  GI50: > 50 µM (inactive)
KM12
  GI50: > 50 µM (inactive)
MOLT-4
  GI50: > 50 µM (inactive)
SK-MEL-5
  GI50: > 50 µM (inactive)
HCT-15
  GI50: > 50 µM
Malme-3M
  GI50: > 50 µM (inactive)
SR
  GI50: > 50 µM (inactive)
SF-295
  GI50: > 50 µM (inactive)
NCI/ADR-RES
  GI50: > 50 µM (inactive)
SN12C
  GI50: > 50 µM (inactive)
786-0
  GI50: > 50 µM (inactive)
MDA-MB-435
  GI50: > 50 µM (inactive)
NCI-H522
  GI50: > 50 µM (inactive)
NCI-H226
  GI50: > 50 µM (inactive)
A498
  GI50: > 50 µM (inactive)
ACHN
  GI50: > 50 µM (inactive)
M14
  GI50: > 50 µM (inactive)
HT-29
  GI50: > 50 µM (inactive)
HCT-116
  GI50: > 50 µM (inactive)
OVCAR-5
  GI50: > 50 µM (inactive)
NCI-H23
  GI50: > 50 µM (inactive)
SF-268
  GI50: > 50 µM (inactive)
UACC-257
  GI50: > 50 µM (inactive)
A549
  GI50: > 50 µM (inactive)
HOP-92
  GI50: > 50 µM (inactive)
OVCAR-8
  GI50: > 50 µM (inactive)
UACC-62
  GI50: > 50 µM (inactive)
SK-OV-3
  GI50: > 50 µM (inactive)
COLO 205
  GI50: > 50 µM (inactive)
T47D
  GI50: > 50 µM (inactive)
SF-539
  GI50: > 50 µM (inactive)
MCF7
  GI50: > 50 µM (inactive)
BT-549
  GI50: > 50 µM (inactive)
OVCAR-3
  GI50: > 50 µM (inactive)
TK-10
  GI50: > 50 µM (inactive)
SNB-19
  GI50: > 50 µM (inactive)
Hs-578T
  GI50: > 50 µM (inactive)
UO-31
  GI50: > 50 µM (inactive)
RPMI-8226
  GI50: > 50 µM (inactive)
OVCAR-4
  GI50: > 50 µM (inactive)
CCRF-CEM
  GI50: > 50 µM (inactive)
SK-MEL-2
  GI50: > 50 µM (inactive)
SW-620
  GI50: > 50 µM (inactive)
K562
  GI50: > 50 µM (inactive)
PC-3
  GI50: > 50 µM (inactive)
CAKI-1
  GI50: > 50 µM (inactive)
LOX IMVI
  GI50: > 50 µM (inactive)
MDA-N
  GI50: > 50 µM (inactive)
U-251
  GI50: > 50 µM (inactive)
SK-MEL-28
  GI50: > 50 µM (inactive)
HOP-62
  GI50: > 50 µM (inactive)
EKVX
  GI50: > 50 µM (inactive)
MDA-MB-231
  GI50: > 50 µM (inactive)
HL-60
  GI50: > 50 µM (inactive)

— ChEMBL document CHEMBL1201862, “PubChem BioAssay data set” (2004)
